1 compound from patent US20230002344A1, “NOVEL BENZOTHIOPHENE DERIVATIVES AND USE THEREOF FOR STIMULATING MITOCHONDRIAL TURNOVER” (NIBN, The National Institute For Biotechnology In The Negev …, priority 2019, published 2023) can be followed below.

SMILES strings stand for the structures. Entries after “also recorded” stand apart in the source; their conditions may differ.

Type in all cases: cell-based
Test [1] deals with INS1 cells expressing mCherry-GFP. In words: mCherry-GFP-Fis1101-152 determination of mitophagy. From the text:
To corroborate the increase in mitochondrial clearance, we determined mitophagy by testing the compounds in INS1 cells expressing mCherry-GFP, a mitochondrial probe that emits green and red fluorescence under physiologic pH but red fluorescence only under acidic pH (such as that occurring in autolysosomes) and is therefore used for quantifying mitophagy. Unlike MitoTimer, which captures the accumulating effect of mitochondrial turnover, mCherry-GFP captures mitophagy at the time that it occurs. Since the timing of the induction of mitophagy by the hits was not known, we did a time-lapse. The cells were treated with the hits for 2, 8 and 18 hours. While after 2 hours and 18 hours, the molecules tended to increase the number of mitochondria inside autophagosomes (data not shown), only after 8 hours was this increase significant.
mCherry-GFP-Fis1101-152 determination of mitophagy. INS1 cells were seeded into 4 compartment […]™ glass bottom cell culture dishes at a density of 2*10^4 cells/compartment. After 48 hours cells were transduced with an adenoviral construct encoding the fluorescent mitophagy reporter mCherry-GFP-Fis1101-152 for 24 hours. A media change containing the indicated treatment concentration or 0.1% DMSO as vehicle control was performed 8 hours before the imaging session. Imaging was performed using a 63× Plan Neofluar objective and the Airyscan module of a Zeiss LSM880 confocal microscope. 25 visual fields containing 59-85 cells in total were imaged per condition. The experiment was repeated three times independently. Image analysis was performed with FIJI ImageJ 1.51p and CellProfiler 2.2.0 rev ac0529e. Briefly, individual cells were cropped and background was subtracted using a median filter assisted processing method (Dunn, K. W., Kamocka, M. M. McDonald, J. H. (2011) A practical guide to evaluating colocalization in biological microscopy. Am. J. Physiol. Cell Physiol. 300, C723-C742). Ratios of red/green fluorescence channels were computed and mitophagy positive structures were recognized based on a lower ratio cut-off of 2.5 of red over green. Mitophagy events per cell were determined by the following formula. […]
Data were normalized to DMSO controls to account for day to day variation. […] Significant treatment differences were determined using One-way ANOVA and Tukey post-hoc analysis. […]
The impact of the hits on mitochondrial turnover was further confirmed by a mitophagy-specific assay, a protein with a tandem mCherry-GFP tag attached to the localization signal of the protein FIS at the OMM. […] When mitochondria enter the lysosomes, the GFP fluorescence is quenched, the remaining red fluorescence is seen as red puncta, representing the undergoing mitophagy events.

For test [2], the system named is INS1 cells expressing MitoTimer. Put plainly: MitoTimer red/green ratio high-content screen and dose-response. On the procedure: INS1 cells were stably transduced with MitoTimer by lentiviral infection and were tested using known modulators of autophagy. The paradigm used was based on previous reports showing that the shift in emission from green to red occurs within 18 hours. Assuming that this shift is constant, changes in red FI occurring during this frame of time can result from an effect on MitoTimer clearance and not from an effect on synthesis. The paradigm employed consisted therefore of a treatment lasting 18 hours followed by imaging.
Stimulators of mitochondrial clearance were defined as those inducing a red-to-green FI below −3 and a red intensity below −5.1. Suppressors of mitochondrial clearance were defined as those inducing a red-to-green FI above 10.34 and a red intensity above 4.5. […] Compounds displaying high green FI (above 15) were also discarded to prevent the inclusion of autofluorescent molecules. Only molecules that filled the above criteria in both duplicates were further tested.
The screen was performed during 8 sessions in Weizmann institute. All compounds were tested at a concentration of 10 μM, in duplicates. The images were processed to reduce background (using Metamorph software) and then analyzed in GeneData software.
We subjected those compounds to a dose-response assay (concentrations: 10, 3.33, 1.11, 0.37 and 0.12 μM).
MitoTimer expressing INS1 cells generation, Cell Culture and treatments. MitoTimer-reporter was cloned into the pHAGE2 lenti-vector under the full-length EF1-alpha promoter to obtain constitutive expression. For the HCS, INS1 cells were infected with lentivirus carrying mitochondrial complex-I-targeted-MitoTimer plasmid. Highly expressing cells were selected by high speed fluorescence activated cell sorter (SY3200 cell sorter, Synergy, iCyt) and kept by the addition of puromycin (1 mg . L-1) in the cell media. Cells were thawed before each experiment, and MitoTimer expression checked through fluorescence.
High-Content Screening. […] HCS assay was developed at the Drug Discovery Unit, INCPM, Weizmann Institute of Science. […] Briefly, cells were treated with 10 uM of each compounds for 18 h and imaged in two wavelengths (FITC—excitation […], emission 520/35 nm and TRITC—excitation 543/22 nm, emission 593/40 nm) at ImageXpress Micro High-Content Imaging System/Molecular Devices. Rapamycin 100 nM was used as a control. In each cell plate, the neutral (DMSO) and positive control (Rapamycin) were repeated in 16 replicates while the treatments were performed in duplicates. Each plate was replicated and only hits found in the 2 independent plates were considered. Two fields of each well were analyzed, what normally allowed the analysis of 20-40 cells per condition. MitoTimer red/green ratio for every cell was done in MetaXpress. […] The compounds which affected MitoTimer red/green ratio in a dose response, ranging from […], were classified as a hit.
Individual cells were identified using the red channel, and red and green MitoTimer fluorescence were analyzed and ratio determined per cell.

The next test deals with INS1 cells. In words: Mitochondrial membrane potential (TMRE/MTG). To be noted: 25 uM, 24 h. As for the experimental part: INS1 cells were treated for 24 h with SPB08007 (25 uM) or DMSO (0.1%). Mitochondrial membrane potential was analyzed cell by cell through TMRE staining corrected by Mitotracker Green (MTG). Cells were imaged using a 100× Plan Neofluar objective and the Airyscan module of a Zeiss LSM880 confocal microscope. […] Each experiment was repeated 2 times, 59-85 cells of each group were analyzed in each experiment for TMRE/MTG, and 48 fields were analyzed in each experiment for Mitosox analysis. *p<0.05 vs. DMSO; ***p<0.05 vs. DMSO and SPB08007.
To assess mitochondrial membrane potential, INS1 cells were plated in each compartment of a quadrant imaging dish (Greiner Bio-One International) at a density of 1.2*10^5 cells/well. After 48 h, cells were incubated RPMI-1640 containing 25 μM of compound A or vehicle (0.1% DMSO). After 18h, the cells were stained in RPMI-1640 media containing 200 nM MitoTracker Green (MTG) and 15 nM of Tetramethylrhodamine, ethyl ester (TMRE); cells were then washed three times and finally kept in RPMI-1640 containing TMRE but lacking MTG. Live-Imaging was performed using a 63× Plan Neofluar objective and the Airyscan module of a Zeiss LSM880 confocal microscope. The mitochondrial membrane potential was analyzed by TMRE fluorescence corrected by MTG, using the Fiji/ImageJ software.

For the compound `CC(=O)N/C(=C\c1sc2ccccc2c1C)C(=O)O` [SPB08007], the “time of peak formation of acidic puncta” value in test [1] (25 uM) is on record as 8 h. In test [1] (25 uM, 8 h, vs DMSO), the “number of acidic puncta (mitophagy events per cell)” value was “significantly increased”. Besides, in test [1] (25 uM, 18 h), the “number of mitophagy events at 18 h” value is listed as “returned to control levels”. Moreover, the “number of red fluorescent dots in acidic vesicles (mitophagy)” value in test [1] (8 hours) is listed as “increased”. Besides, the “red/green MitoTimer ratio” value in test [2] (10 uM, INS1 cells) is reported as “reduced”. Further, the MitoTimer green readout result in test [2] (50 uM dose) is “increase”. Besides, in test [2] (50 uM dose, 18 h, vs DMSO), the “maximum reduction on the ratio index (MitoTimer red/green)” value turned out to be 40%. In addition, the “optimal dose for stimulating a reduction in red-to-green FI” value in test [2] (INS1 cells, 18 h) was 25 µM. The “activity (MitoTimer red-to-green FI, Z-score vs DMSO)” value in test [2] (INS1 cells, 18 h, dose-response) is −3.018. Besides, in test [2] (Rattus norvegicus, INS1 cells, 18 h, dose-response, read-out: qEC50), the EC50 was determined as 49 µM. In addition, the “mitochondrial membrane potential ψm (TMRE/MTG)” value with INS1 cells is given as “not reduced; also recorded: slightly, but significantly, raised”.
